Consider 16 compounds from ChEMBL document CHEMBL3822409, “Synthesis and antitubercular activity of new 1,3,4-oxadiazoles bearing pyridyl and thiazolyl scaffolds” (Bioorg Med Chem Lett, 2016).

In brackets after ≈: the same amount, converted by molar mass. Some results are limits rather than exact numbers.

Test [1] has as its system Mycobacterium tuberculosis variant bovis BCG. Nature of the test: Antimycobacterial activity against active stage of Mycobacterium bovis BCG ATCC 35734 measured on day 8 by nitrate reductase assay. It is filed as functional, organism-based. To be noted: ATCC 35734, 192 h.
For test [2] the test system is unchanged. The experiment in a line: Antimycobacterial activity against dormant stage of Mycobacterium bovis BCG ATCC 35734 measured on day 12 by nitrate reductase assay. It counts as functional, organism-based. To be noted: ATCC 35734, 288 h.

Regarding `Cc1nc(-c2cccnc2)sc1-c1nnc(-c2ccccc2Cl)o1`, in test [1], the midpoint of inhibition, the IC50, lay at 2.62 µg/mL (≈ 7.38 µM) and 5.16 µg/mL (≈ 14.5 µM) was the least that counted as inhibitory (MIC). Besides, in test [2], inhibition was half-maximal at 1.47 µg/mL (≈ 4.14 µM) (IC50) and the MIC (in general, the lowest concentration found to suppress growth) was found to be 4.77 µg/mL (≈ 13.4 µM).

Regarding `Cc1nc(-c2cccnc2)sc1-c1nnc(-c2ccccc2[N+](=O)[O-])o1`, in test [1], the half-inhibitory concentration (IC50) – broadly, the concentration that gives 50% inhibition – worked out at 1.68 µg/mL (≈ 4.6 µM) and the MIC is 2.56 µg/mL (≈ 7.01 µM). In test [2], this compound returned an IC50 of 3.55 µg/mL (≈ 9.72 µM) and an MIC of 5.89 µg/mL (≈ 16.1 µM).

In test [1], `Cc1nc(-c2cccnc2)sc1-c1nnc(-c2ccccc2)o1` displayed an IC50 of over 30 µg/mL and an MIC of over 30 µg/mL. In test [2], this compound displayed an IC50 of over 30 µg/mL and an MIC of over 30 µg/mL.

For the compound `Cc1nc(-c2cccnc2)sc1-c1nnc(Cc2ccccc2)o1`, in test [1], the IC50 is 7.2 µg/mL (≈ 21.5 µM) and the MIC was found to be 11.3 µg/mL (≈ 33.8 µM). In addition, in test [2], the IC50 is 5.26 µg/mL (≈ 15.7 µM) and inhibition of growth (MIC) required 10.4 µg/mL (≈ 31 µM).

In the case of `Cc1nc(-c2cccnc2)sc1-c1nnc(-c2ccc(O)cc2)o1`, the IC50 in test [1] and in test [2] was over 30 µg/mL throughout. The MIC in test [1] and in test [2] was over 30 µg/mL in each case.

Consider `Cc1ccc(-c2nnc(-c3sc(-c4cccnc4)nc3C)o2)cc1`, for which the IC50 in test [1] came out at 14.2 µg/mL (≈ 42.6 µM); in test [2], 15.2 µg/mL (≈ 45.5 µM). Also, the MIC in test [1] and in test [2] was over 30 µg/mL in each case.

Regarding `CO[C@H]1/C=C/O[C@@]2(C)Oc3c(C)c(O)c4c(O)c(c(/C=N/N5CCN(C)CC5)c(O)c4c3C2=O)NC(=O)/C(C)=C\C=C\[C@H](C)[C@H](O)[C@@H](C)[C@@H](O)[C@@H](C)[C@H](OC(C)=O)[C@@H]1C` [RIFAMPIN], in test [1], 0.003 µg/mL (≈ 0.00365 µM) corresponded to half-maximal inhibition (IC50) and it took 0.08 µg/mL (≈ 0.0972 µM) to inhibit growth (MIC). Besides, in test [2], half-maximal inhibition (IC50) required 0.0027 µg/mL (≈ 0.00328 µM) and the MIC turned out to be 0.05 µg/mL (≈ 0.0608 µM).

With `Cc1nc(-c2cccnc2)sc1-c1nnc(-c2cccc(Cl)c2Cl)o1`, in test [1], the IC50 was over 30 µg/mL and the MIC is over 30 µg/mL. In test [2], this compound displayed an IC50 of over 30 µg/mL and an MIC of over 30 µg/mL.

In test [1], `Cc1ccccc1-c1nnc(-c2sc(-c3cccnc3)nc2C)o1` displayed an IC50 of 2.69 µg/mL (≈ 8.04 µM) and an MIC of 5.84 µg/mL (≈ 17.5 µM). In test [2], this compound had an IC50 of 1.44 µg/mL (≈ 4.31 µM) and an MIC of 4.91 µg/mL (≈ 14.7 µM).

Consider `Cc1cccc(-c2nnc(-c3sc(-c4cccnc4)nc3C)o2)c1`, for which, in test [1], the IC50 is over 30 µg/mL and the minimal inhibitory concentration (MIC) was over 30 µg/mL. Also, in test [2], the IC50 is over 30 µg/mL and the minimum inhibitory concentration (MIC) was over 30 µg/mL.

In test [1], `COc1ccccc1-c1nnc(-c2sc(-c3cccnc3)nc2C)o1` had a concentration for half-maximal inhibition (IC50) of 1.46 µg/mL (≈ 4.17 µM) and a minimal inhibitory concentration (MIC) of 2.65 µg/mL (≈ 7.56 µM). Further, in test [2], inhibition was half-maximal at 1.8 µg/mL (≈ 5.14 µM) (IC50) and the MIC was found to be 3.95 µg/mL (≈ 11.3 µM).

Consider `Cc1nc(-c2cccnc2)sc1-c1nnc(-c2ccc(Cl)cc2)o1`, for which the IC50 in test [1] and in test [2] was over 30 µg/mL in each case. The MIC in test [1] and in test [2] was over 30 µg/mL in each case.

Regarding `Cc1nc(-c2cccnc2)sc1-c1nnc(-c2ccncc2)o1`, the IC50 in test [1] stood at 24.7 µg/mL (≈ 76.8 µM); in test [2] it was 28 µg/mL (≈ 87 µM). The MIC in test [1] is 40 µg/mL (≈ 125 µM); in test [2], 42.2 µg/mL (≈ 131 µM).

For `Cc1nc(-c2cccnc2)sc1-c1nnc(-c2ccc([N+](=O)[O-])cc2)o1`, in test [1], 22.5 µg/mL (≈ 61.6 µM) corresponded to half-maximal inhibition (IC50) and the MIC was over 30 µg/mL. In test [2], this compound had an IC50 of 24.9 µg/mL (≈ 68.2 µM) and an MIC of over 30 µg/mL.

Consider `Cc1nc(-c2cccnc2)sc1-c1nnc(-c2cccnc2)o1`, for which the results for the IC50 in test [1] and in test [2] were 24.5 µg/mL (≈ 76.2 µM) and 56.3 µg/mL (≈ 175 µM), respectively. Moreover, the MIC in test [1] worked out at 40.4 µg/mL (≈ 126 µM); in test [2], 94.9 µg/mL (≈ 295 µM).

As for `Cc1nc(-c2cccnc2)sc1-c1nnc(-c2ccc(Br)cc2)o1`, the IC50 in test [1] and in test [2] was over 30 µg/mL in each case. The MIC in test [1] and in test [2] was over 30 µg/mL throughout.
